# Laboratory results from US20110086850A1, “RADIOSENSITIZATION OF TUMORS WITH INDAZOLPYRROLOTRIAZINES FOR RADIOTHERAPY” (Board of Regents, The University of Texas System, priority 2008, published 2011).
# Columns and labels:
# γ-H2AX foci = γ-H2AX foci immunocytochemistry (DNA repair); type: cell-based; details: 24 hrs after radiation; AC480 600 nM (FIG. 7)
# Description: The control is shown as open circle and solid line.
# (§1) The radiosensitization effect of AC480 was evaluated in vitro using head neck squamous cell carcinoma cells, HNSCC-10, which express HER2 only and have no detectable amount of HER1 protein, and HN-5 cells, which express high levels of HER1 and HER2 proteins. […] AC480 was added to cell cultures that contained either HN-5 or HNSCC-10 cells 6 hrs before and kept in the medium for additional 66 hrs after irradiation. The cancerous cells were then irradiated with graded single doses of γ-radiation. At various predetermined time points after irradiation, the cells were assessed: (a) for clonogenic survival using clonogenic survival assays; (b) for apoptosis using aTUNEL assay; (c) for cell cycle distribution with FACS; and (d) for protein expression related to the cell cycle, apoptosis, and DNA repair, using Western blotting and immunoprecipitation methods.
# The extent of DNA repair is quantified by measuring the generation of nuclear foci at the site of DNA damage by phosphorylated H2AX (γ-H2AX), which is involved in the retention of repair and signaling factor complexes at sites of DNA double strand breaks. γ-H2AX is detected with antibodies to phosphorylated H2AX using traditional immunohistochemistry (See, e.g., Friesner et al., Mol. Biol. Cell. 2005, ^-16, 2566-2576; and Dote et al., Clin. Cancer Res. 2005, 11, 4571-4579). […]
# HN-5 tumor xenografts = assay: Tumor growth delay assay, HN-5 tumor xenografts; type: in vivo, nude male mice; details: AC480 120 mg/kg gavage once daily for 14 days
# Description: The terms “dose enhancement ratio” and “dose enhancement factor” are used interchangeably herein and are used herein to measure the fold increase in cytotoxic efficacy of radiation when delivered in the presence of a radiosensitizer. In certain embodiments, dose enhancement ratio is calculated by dividing the radiation dose required to achieve a surviving fraction in the absence of the radiosensitizer with the radiation dose required to achieve the same surviving fraction in the presence of the radiosensitizer at a specified concentration. This calculation method can be used to assess the radiosensitizing effect of an radiosensitizer in an in vitro system, such as cells in culture. […]
# The effect of AC480 on radioresponse was assessed by tumor growth delay assay using HN-5 tumor xenografts generated in nude male mice.
# Specifically, HN-5 cells (1×10^6) were injected into the right leg of 3-4 month old nude male mice (nu-nu/Ncr) (SPF mice). […] Tumors were measured with calipers 3 times/week to determine tumor growth delay. […]
# UMSCC-10 cells [1] = assay: Cell proliferation assay (MTT assay); type: cell-based; details: AC480 50 nM—1 μM, 72 hrs
# Description: as §1
# (§2) The effect of AC480 on cell proliferation of HN-5 and UMSCC-10 cells was determined using 3-[4,5-dimethylthiozol-2-yl]-2,5-diphenyltetrazolium bromide (MTT) assay. HN-5 and UMSCC-10 cells are plated in 96-well plates and treated with a series of concentrations of AC480. […] The cells are then lysed in 150 μL of ethanol/DMSO mixture (1:1), and the absorbance read at 540 nm using a 96-well plate reader.
# HN-5 cells [2] = assay: Cell proliferation assay (MTT assay); type: cell-based; details: AC480 50 nM—1 μM, 72 hrs
# Description: as §1, §2
# UMSCC-10 cells [3] = assay: TUNEL assay, radiation-induced apoptosis; type: cell-based
# Description: as §1
# (§3) Apoptotic cells are detected by in-situ labeling of fragmented DNA with enzymatically labeled nucleotides using the TUNEL method as described in commercial protocols or by following the procedure described in Sgonc et al., Trends in Genetic 1994, 10, 41-42. AC480 increased radiation-induced apoptosis in HN-5 but not in UMSCC-10 cells (FIG. 5).
# HN-5 cells [4] = assay: TUNEL assay, radiation-induced apoptosis; type: cell-based
# Description: as §1, §3
# [5] = test system: adenocarcinomas expressing HER1 and/or HER2 in salivary gland, breast, non-small cell lung, and gastric cancer cell lines; details: Wong et al., Clin. Cancer Res. 2006; cited from earlier work
# UMSCC-10 cells [6] = assay: Clonogenic survival assay with γ-irradiation; type: cell-based; details: AC480 300 or 600 nM from 6 hrs before to 66 hrs after 2, 4 or 6 Gy γ-rays
# Description: as §1
# (§4) HN-5 or UMSCC-10 cells were counted and plated. Twenty-four hours later, the cells in culture were then exposed to AC480 at 300 or 600 nM for 6 hrs. The cells were then irradiated with graded doses at 2, 4, or 6 Gy of γ-rays using a ^137Cs source (3.7 Gy/min). Sixty-six hours later, culture media with AC480 were removed and fresh media were added. Media change was also done for untreated control cells at the same time. After 11 to 14 days of incubation, colonies were counted. […] The dose enhancement ratio at survival fraction of 0.5 was 1.30 for 300 nM and 1.43 for 600 nM of AC480. Dose enhancement ratio was calculated by dividing the radiation dose required to achieve a surviving fraction of 0.5 in the absence of AC480 with the radiation dose required to achieve the same surviving fraction in the presence of AC480 at a specified concentration.
# HN-5 cells [7] = assay: Clonogenic survival assay with γ-irradiation; type: cell-based; details: for dose enhancement ratio at survival fraction of 0.5: cell line not named in the sentence (HN-5 by context)
# Description: as §1, §4
# UMSCC-10 cells [8] = assay: Cell-cycle analysis (FACS) after radiation; type: cell-based
# Description: as §1
# (§5) Cell cycle distribution is measured by determining the ploidy of cells by staining the cells with fluorescent dye and sorting by FACS using a commercially available kit. AC480 increased radiation-induced accumulation of HN-5 but not in UMSCC-10 cells in the G1 cell cycle phase (FIG. 6).
# HN-5 cells [9] = assay: Cell-cycle analysis (FACS) after radiation; type: cell-based
# Description: as §1, §5
compound,measurement,setting,value
Cc1c(NC(=O)OC[C@@H]2COCCN2)cn2ncnc(Nc3ccc4c(cnn4Cc4cccc(F)c4)c3)c12 [AC480],presence of γ-H2AX foci after radiation,γ-H2AX foci,prolonged
same,effect on radioresponse of HN-5 tumors in vivo,HN-5 tumor xenografts; before and during radiation (5 Gy×5 days),improve the radioresponse
same,enhancement factor (tumor growth delay),"HN-5 tumor xenografts; with XRT 5 Gy×5 consecutive days, HN-5 xenografts in nude mice",1.9
same,effect on cell growth (MTT),UMSCC-10 cells [1],not
same,effect on cell growth (MTT),HN-5 cells [2],inhibits the growth
same,effect on radiation-induced apoptosis (TUNEL),UMSCC-10 cells [3],not
same,effect on radiation-induced apoptosis (TUNEL),HN-5 cells [4],increased
same,cytotoxicity,[5],cytotoxic
same,effect on radiosensitivity (clonogenic survival),UMSCC-10 cells [6],not
same,dose enhancement ratio at survival fraction of 0.5,HN-5 cells [7]; 300 nM AC480,1.30
same,dose enhancement ratio at survival fraction of 0.5,HN-5 cells [7]; 600 nM AC480,1.43
same,effect on radiosensitivity (clonogenic survival),"HN-5 cells [7]; HN-5 cells, AC480 300 or 600 nM from 6 hrs before to 66 hrs after 2, 4 or 6 Gy γ-rays",significantly enhanced
same,effect on radiation-induced accumulation of cells in the G1 cell cycle phase,UMSCC-10 cells [8],not
same,effect on radiation-induced accumulation of cells in the G1 cell cycle phase,HN-5 cells [9],increased
